Patent US10738028B2, “Spiro three-membered ring, spiro five-membered ring peptide deformylase inhibitor and use thereof in antibacteria and anti-tumor” (priority 2016, dated 2020)
In brackets after ≈: the same amount, converted by molar mass.

Columns and labels:
Format in all cases: cell-based
[1] = system: methicillin-resistant Staphylococcus epidermidis (MRSE); assay: MIC, two-fold agar dilution (CLSI), clinical isolates
Excerpt: (§1) 1. The invention adopts the two-fold agar dilution method recommended by the operating procedure of antimicrobial susceptibility testing set by American Clinical and Laboratory Standards Institute (CLSI) to determine the Minimum Inhibitory Concentration (MIC) of the test samples against the tested strains.

[2] = system: Escherichia coli (including ESBLs, non-ESBLs); assay: as above
Excerpt: as §1

[3] = system: methicillin-sensitive Staphylococcus aureus (MSSA); assay: as above
Excerpt: as §1

[4] = system: Streptococcus pneoumoniae (SPN); assay: as above
Excerpt: as §1

[5] = system: methicillin-resistant Staphylococcus aureus (MRSA); assay: as above
Excerpt: as §1

[6] = system: Moraxella catarrhalis (BCA); assay: as above
Excerpt: as §1

[7] = system: Enterococcus faecium (EFM); assay: as above
Excerpt: as §1

[8] = system: methicillin-sensitive Staphylococcus epidermidis (MSSE); assay: as above
Excerpt: as §1

[9] = system: Enterococcus faecalis (EFA); assay: as above
Excerpt: as §1

[10] = system: HCT-116 colorectal cancer cell line; assay: CCK-8 proliferation inhibition; settings: Homo sapiens, HCT-116, 72 h, concentration of 30 μM; 72 hours; CCK-8; read-out: HCT116 inhibition rate/%
Protocol: (1) HCT-116 colorectal cancer cell line, A549 lung cancer cell line, MGC-803 gastric cancer cell line, BEL-7402 liver cancer cell line, Jurkat T cell leukemia cell line, HL60 acute myeloid leukemia cell line, Hela cervical cancer cell line, MCF-7 breast cancer cell line, PC3 prostate cancer cell line and SAOS-2 osteosarcoma cell line were made into single cell suspension, 180 μL of which was inoculated into 96-well culture plate, which was cultured overnight in CO2 incubator (37° C., 5% CO2, 95% air).
(2) Each of the spiro three-membered ring, spiro five membered ring peptide deformylase inhibitors was dissolved in DMSO, and was further formulated into drug solution with required different final concentration using corresponding cell culture medium. The drug solutions were added to the above cells respectively (20 μL/well), with the control group added with 1‰ DMSO, and cultured in a CO2 incubator for 72 hours.
(3) After incubation for 72 hours, the culture solution was decanted, and 100 μL of 1:10 diluted CCK-8 solution was added.
Wherein, in step (1), the concentration of the single cell suspension was 2000 cells/well.
Wherein, in step (2), HCT-116 cells were cultured in McCoy's 5A medium (containing 10% newborn bovine serum, 1% double antibody); A549 and PC3 cells were cultured in F12 medium (containing 10% newborn bovine serum, 1% double antibody); MGC-803, BEL-7402, SAOS-2, Jurkat and HL60 cells were cultured in 1640 medium (containing 10% newborn bovine serum, 1% double antibody); and MCF-7 and Hela cells were cultured in DMEM high glucose medium (containing 10% newborn bovine serum, 1% double antibody).

## CCCC[C@H](CC(=O)NO)C(=O)N1CC2(CC2)C[C@H]1C(=O)Nc1ccno1 [Example 54, (S)-5-((R)-2-(2-(hydroxyamino)-2-oxoethyl)hexanoyl)-N-(isoxazol-5-yl)-5-spiro[2.4]heptane-6-carboxamide]
[1]; clinical isolate MRSE 15-1
  Anti-bacterial activity (MIC), strain MRSE 15-1: > 32 µg/mL
[1]; clinical isolate MRSE 15-2
  Anti-bacterial activity (MIC), strain MRSE 15-2: > 32 µg/mL
[1]; clinical isolate MRSE 15-3
  Anti-bacterial activity (MIC), strain MRSE 15-3: > 32 µg/mL
[1]; clinical isolate MRSE 15-7
  Anti-bacterial activity (MIC), strain MRSE 15-7: > 32 µg/mL
[2]; clinical isolate ECO+ 15-1
  Anti-bacterial activity (MIC), strain ECO+ 15-1: > 32 µg/mL
[2]; clinical isolate ECO+ 15-2
  Anti-bacterial activity (MIC), strain ECO+ 15-2: > 32 µg/mL
[2]; clinical isolate ECO+ 15-3
  Anti-bacterial activity (MIC), strain ECO+ 15-3: > 32 µg/mL
[2]; clinical isolate ECO+ 15-4
  Anti-bacterial activity (MIC), strain ECO+ 15-4: > 32 µg/mL
[2]; clinical isolate ECO− 15-1
  Anti-bacterial activity (MIC), strain ECO− 15-1: > 32 µg/mL
[2]; clinical isolate ECO− 15-2
  Anti-bacterial activity (MIC), strain ECO− 15-2: > 32 µg/mL
[2]; clinical isolate ECO− 15-3
  Anti-bacterial activity (MIC), strain ECO− 15-3: > 32 µg/mL
[2]; clinical isolate ECO− 15-4
  Anti-bacterial activity (MIC), strain ECO− 15-4: > 32 µg/mL
[3]; clinical isolate MSSA 15-3
  Anti-bacterial activity (MIC), strain MSSA 15-3: > 32 µg/mL
[3]; clinical isolate MSSA 15-4
  Anti-bacterial activity (MIC), strain MSSA 15-4: > 32 µg/mL
[3]; clinical isolate MSSA 15-5
  Anti-bacterial activity (MIC), strain MSSA 15-5: > 32 µg/mL
[3]; clinical isolate MSSA 15-6
  Anti-bacterial activity (MIC), strain MSSA 15-6: > 32 µg/mL
[4]; clinical isolate SPN 16-2
  Anti-bacterial activity (MIC), strain SPN 16-2: 4 µg/mL
[4]; clinical isolate SPN 16-4
  Anti-bacterial activity (MIC), strain SPN 16-4: 4 µg/mL
[5]; clinical isolate MRSA 15-1
  Anti-bacterial activity (MIC), strain MRSA 15-1: > 32 µg/mL
[5]; clinical isolate MRSA 15-2
  Anti-bacterial activity (MIC), strain MRSA 15-2: > 32 µg/mL
[5]; clinical isolate MRSA 15-3
  Anti-bacterial activity (MIC), strain MRSA 15-3: > 32 µg/mL
[5]; clinical isolate MRSA 15-4
  Anti-bacterial activity (MIC), strain MRSA 15-4: > 32 µg/mL
[6]; clinical isolate BCA 14-1
  Anti-bacterial activity (MIC), strain BCA 14-1: > 32 µg/mL
[6]; clinical isolate BCA 14-4
  Anti-bacterial activity (MIC), strain BCA 14-4: > 32 µg/mL
[6]; clinical isolate BCA 14-5
  Anti-bacterial activity (MIC), strain BCA 14-5: 32 µg/mL
[6]; clinical isolate BCA 14-6
  Anti-bacterial activity (MIC), strain BCA 14-6: > 32 µg/mL
[6]; clinical isolate BCA 14-7
  Anti-bacterial activity (MIC), strain BCA 14-7: > 32 µg/mL
[6]; clinical isolate BCA 14-8
  Anti-bacterial activity (MIC), strain BCA 14-8: > 32 µg/mL
[6]; clinical isolate BCA 14-10
  Anti-bacterial activity (MIC), strain BCA 14-10: > 32 µg/mL
[7]; clinical isolate EFM 15-1
  Anti-bacterial activity (MIC), strain EFM 15-1: > 32 µg/mL
[7]; clinical isolate EFM 15-2
  Anti-bacterial activity (MIC), strain EFM 15-2: > 32 µg/mL
[7]; clinical isolate EFM 15-3
  Anti-bacterial activity (MIC), strain EFM 15-3: > 32 µg/mL
[7]; clinical isolate EFM 15-4
  Anti-bacterial activity (MIC), strain EFM 15-4: > 32 µg/mL
[7]; clinical isolate EFM 15-5
  Anti-bacterial activity (MIC), strain EFM 15-5: 2 µg/mL
[7]; clinical isolate EFM 15-6
  Anti-bacterial activity (MIC), strain EFM 15-6: 8 µg/mL
[8]; clinical isolate MSSE 15-3
  Anti-bacterial activity (MIC), strain MSSE 15-3: > 32 µg/mL
[8]; clinical isolate MSSE 15-4
  Anti-bacterial activity (MIC), strain MSSE 15-4: > 32 µg/mL
[8]; clinical isolate MSSE 15-5
  Anti-bacterial activity (MIC), strain MSSE 15-5: > 32 µg/mL
[8]; clinical isolate MSSE 15-6
  Anti-bacterial activity (MIC), strain MSSE 15-6: > 32 µg/mL
[9]; clinical isolate EFA 15-1
  Anti-bacterial activity (MIC), strain EFA 15-1: > 32 µg/mL
[9]; clinical isolate EFA 15-2
  Anti-bacterial activity (MIC), strain EFA 15-2: > 32 µg/mL
[9]; clinical isolate EFA 15-3
  Anti-bacterial activity (MIC), strain EFA 15-3: > 32 µg/mL
[9]; clinical isolate EFA 15-4
  Anti-bacterial activity (MIC), strain EFA 15-4: > 32 µg/mL
[9]; clinical isolate EFA 15-5
  Anti-bacterial activity (MIC), strain EFA 15-5: > 32 µg/mL
[9]; clinical isolate EFA 15-6
  Anti-bacterial activity (MIC), strain EFA 15-6: > 32 µg/mL
[9]; clinical isolate EFA 15-9
  Anti-bacterial activity (MIC), strain EFA 15-9: 32 µg/mL
[10]
  inhibition at 30 µM: 8%

## CCCC[C@H](CN(O)C=O)C(=O)N1CC2(CC2)C[C@H]1C(=O)Nc1cnccn1 [Example 15]
[1]; strain MRSE 15-1
  MIC (anti-bacterial activity): 0.125 µg/mL (≈ 0.321 µM)
[1]; strain MRSE 15-2
  MIC (anti-bacterial activity): 0.25 µg/mL (≈ 0.642 µM)
[1]; strain MRSE 15-3
  MIC (anti-bacterial activity): 0.25 µg/mL (≈ 0.642 µM)
[1]; strain MRSE 15-7
  MIC (anti-bacterial activity): 0.25 µg/mL (≈ 0.642 µM)
[2]; strain ECO+ 15-1
  MIC (anti-bacterial activity): 32 µg/mL (≈ 82.2 µM)
[2]; strain ECO+ 15-2
  MIC (anti-bacterial activity): 64 µg/mL (≈ 164 µM)
[2]; strain ECO+ 15-3
  MIC (anti-bacterial activity): 32 µg/mL (≈ 82.2 µM)
[2]; strain ECO+ 15-4
  MIC (anti-bacterial activity): 32 µg/mL (≈ 82.2 µM)
[2]; strain ECO− 15-1
  MIC (anti-bacterial activity): 32 µg/mL (≈ 82.2 µM)
[2]; strain ECO− 15-2
  MIC (anti-bacterial activity): 64 µg/mL (≈ 164 µM)
[2]; strain ECO− 15-3
  MIC (anti-bacterial activity): 64 µg/mL (≈ 164 µM)
[2]; strain ECO− 15-4
  MIC (anti-bacterial activity): 64 µg/mL (≈ 164 µM)
[3]; strain MSSA 15-3
  MIC (anti-bacterial activity): 0.25 µg/mL (≈ 0.642 µM)
[3]; strain MSSA 15-4
  MIC (anti-bacterial activity): 0.125 µg/mL (≈ 0.321 µM)
[3]; strain MSSA 15-5
  MIC (anti-bacterial activity): 0.125 µg/mL (≈ 0.321 µM)
[3]; strain MSSA 15-6
  MIC (anti-bacterial activity): 0.125 µg/mL (≈ 0.321 µM)
[4]; strain SPN 16-2
  MIC (anti-bacterial activity): 0.015 µg/mL (≈ 0.0385 µM)
[4]; strain SPN 16-4
  MIC (anti-bacterial activity): 0.5 µg/mL (≈ 1.28 µM)
[5]; strain MRSA 15-1
  MIC (anti-bacterial activity): 0.125 µg/mL (≈ 0.321 µM)
[5]; strain MRSA 15-2
  MIC (anti-bacterial activity): 0.25 µg/mL (≈ 0.642 µM)
[5]; strain MRSA 15-3
  MIC (anti-bacterial activity): 0.125 µg/mL (≈ 0.321 µM)
[5]; strain MRSA 15-4
  MIC (anti-bacterial activity): 0.25 µg/mL (≈ 0.642 µM)
[6]; strain BCA 14-1
  MIC (anti-bacterial activity): 0.5 µg/mL (≈ 1.28 µM)
[6]; strain BCA 14-4
  MIC (anti-bacterial activity): 0.5 µg/mL (≈ 1.28 µM)
[6]; strain BCA 14-5
  MIC (anti-bacterial activity): 0.125 µg/mL (≈ 0.321 µM)
[6]; strain BCA 14-6
  MIC (anti-bacterial activity): 1 µg/mL (≈ 2.57 µM)
[6]; strain BCA 14-7
  MIC (anti-bacterial activity): 0.125 µg/mL (≈ 0.321 µM)
[6]; strain BCA 14-8
  MIC (anti-bacterial activity): 0.5 µg/mL (≈ 1.28 µM)
[6]; strain BCA 14-10
  MIC (anti-bacterial activity): 0.125 µg/mL (≈ 0.321 µM)
[7]; strain EFM 15-1
  MIC (anti-bacterial activity): 1 µg/mL (≈ 2.57 µM)
[7]; strain EFM 15-2
  MIC (anti-bacterial activity): 1 µg/mL (≈ 2.57 µM)
[7]; strain EFM 15-3
  MIC (anti-bacterial activity): 0.125 µg/mL (≈ 0.321 µM)
[7]; strain EFM 15-4
  MIC (anti-bacterial activity): 1 µg/mL (≈ 2.57 µM)
[7]; strain EFM 15-5
  MIC (anti-bacterial activity): 0.125 µg/mL (≈ 0.321 µM)
[7]; strain EFM 15-6
  MIC (anti-bacterial activity): 1 µg/mL (≈ 2.57 µM)
[8]; strain MSSE 15-3
  MIC (anti-bacterial activity): 0.25 µg/mL (≈ 0.642 µM)
[8]; strain MSSE 15-4
  MIC (anti-bacterial activity): 0.06 µg/mL (≈ 0.154 µM)
[8]; strain MSSE 15-5
  MIC (anti-bacterial activity): 0.06 µg/mL (≈ 0.154 µM)
[8]; strain MSSE 15-6
  MIC (anti-bacterial activity): 0.06 µg/mL (≈ 0.154 µM)
[9]; strain EFA 15-1
  MIC (anti-bacterial activity): 1 µg/mL (≈ 2.57 µM)
[9]; strain EFA 15-2
  MIC (anti-bacterial activity): 1 µg/mL (≈ 2.57 µM)
[9]; strain EFA 15-3
  MIC (anti-bacterial activity): 1 µg/mL (≈ 2.57 µM)
[9]; strain EFA 15-4
  MIC (anti-bacterial activity): 1 µg/mL (≈ 2.57 µM)
[9]; strain EFA 15-5
  MIC (anti-bacterial activity): 4 µg/mL (≈ 10.3 µM)
[9]; strain EFA 15-6
  MIC (anti-bacterial activity): 4 µg/mL (≈ 10.3 µM)
[9]; strain EFA 15-9
  MIC (anti-bacterial activity): 1 µg/mL (≈ 2.57 µM)
[10]
  inhibition at 30 µM: 24%
